Reference: ChEMBL document CHEMBL5303304, “EUbOPEN Chemogenomics Library - IncuCyte” (2023)

How the values were obtained:
Type in all cases: toxicity, cell-based
U2OS = assay: Incucyte cell viability with U2OS; settings: human, 10 µM, compound concentration 10 uM
Fibroblast = assay: Incucyte cell viability with human fibroblast; settings: 10 µM, compound concentration 10 uM
HEK-293T = assay: Incucyte cell viability with HEK293T; settings: human, 0 h, 10 µM, compound concentration 10 uM
Further: unitless GR value; below 1 slowed growth and below 0 cell loss.

Row | SMILES | Growth Rate (U2OS; 12 h, replicate number 2) | Growth Rate (U2OS; 18 h, replicate number 2) | Growth Rate (Fibroblast; 6 h, replicate number 1) | Growth Rate (Fibroblast; 6 h, replicate number 2) | Growth Rate (Fibroblast; 12 h, replicate number 2) | Growth Rate (Fibroblast; 18 h, replicate number 1) | Growth Rate (Fibroblast; 18 h, replicate number 2) | Growth Rate (Fibroblast; 24 h, replicate number 1) | Growth Rate (Fibroblast; 24 h, replicate number 2) | Growth Rate (U2OS; 0 h, replicate number 1) | Growth Rate (U2OS; 6 h, replicate number 1) | Growth Rate (U2OS; 6 h, replicate number 2) | Growth Rate (U2OS; 12 h, replicate number 1) | Growth Rate (U2OS; 18 h, replicate number 1) | Growth Rate (U2OS; 24 h, replicate number 1) | Growth Rate (U2OS; 24 h, replicate number 2) | Growth Rate (U2OS; 0 h, replicate number 2) | Growth Rate (Fibroblast; 0 h, replicate number 1) | other results
1 | Cc1nc2cccnc2n2c(-c3cc([C@@]4(O)CCCOC4)ccc3Cl)nnc12 | 0.83 | 0.96 | 0.39 | -0.24 | 0.67 | 0.97 | 0.74 | 0.81 | 0.88 | – | – | – | – | – | – | – | – | – | –
2 | CS(C)(=O)=Nc1ccc(-c2ccc(-c3nc4[nH]c(O[C@@H]5CO[C@H]6[C@@H]5OC[C@H]6O)nc4cc3Cl)cc2)cc1 | 0.92 | 0.97 | – | – | – | – | – | 0.75 | – | 0.01 | 0.36 | 0.94 | 0.65 | 0.82 | 0.77 | 0.98 | – | – | –
3 | O=C(O)c1ccc(CN2C[C@@H]3C[C@H]2CN3Cc2ccc(Oc3ccc(-c4ncco4)cc3)cc2)cc1 [ACEBILUSTAT] | 0.49 | 0.79 | – | -0.8 | 0.38 | – | 0.62 | – | 0.87 | – | 0.74 | -0.01 | – | – | – | 0.82 | 0.32 | -0.98 | –
4 | Cc1cc(Cn2c(N3CC4(CNC4)C3)nc3cc(Cl)cc(N4CCN(C)CC4)c32)cc(C)c1F | 0.82 | 0.98 | -0.09 | -0.44 | 0.21 | 0 | 0.16 | 0.06 | 0.36 | -0.3 | 0.43 | 0.64 | 0.79 | 0.95 | 0.83 | 0.96 | -0.61 | -1 | Growth Rate (Fibroblast; 0 h, replicate number 2): -0.8; Growth Rate (Fibroblast; 12 h, replicate number 1): -0.09
5 | COc1cc(-c2cc3ncccc3c(O[C@@H](C)[C@H]3CNC(=O)C3)n2)cc(OC)c1OC | – | – | – | – | 0.62 | – | – | – | – | – | 0.94 | – | – | – | – | – | – | – | –
6 | COc1nc2ccc([C@@](O)(c3ccc(Cl)cc3)c3cncn3C)cc2c(Cl)c1Cc1ccc(-n2cccn2)cc1 [JNJ-53721590] | – | – | – | – | – | – | – | – | – | -1 | -0.25 | – | – | – | – | – | – | – | Growth Rate (HEK-293T; replicate number 1): -0.99; Growth Rate (HEK-293T; replicate number 2): -1
7 | C[C@H](CCC(=O)O)[C@H]1CC[C@H]2[C@@H]3CC[C@@H]4C[C@H](O)CC[C@]4(C)[C@H]3C[C@H](O)[C@]12C [DEOXYCHOLIC ACID] | 0.96 | – | 0.32 | 0.72 | 0.78 | 0.97 | 0.69 | – | 0.9 | 0.46 | 0.86 | 0.82 | 0.76 | 0.88 | 0.86 | – | 0.84 | 0.67 | –
8 | O=C(Nc1cc2cc[nH]c(=O)c2cc1Cl)[C@H]1CNC[C@@H]1c1cccnc1.O=C(O)C(F)(F)F | – | – | – | – | – | – | – | – | – | – | – | – | – | – | – | – | – | – | Growth Rate (HEK-293T; replicate number 1): -0.73
9 | Cl.Clc1cc2cc(c1)-c1cnn3ccc(nc13)NCCOCCO2 | 0.85 | – | 0.79 | -0.68 | – | 0.22 | – | -0.13 | – | -0.1 | – | 0.72 | 0.99 | – | 0.93 | 0.92 | 0.65 | – | Growth Rate (Fibroblast; 12 h, replicate number 1): -1
10 | CC#CCC(C)[C@H](O)/C=C/[C@@H]1[C@H]2C/C(=C/CCCC(=O)O)C[C@H]2C[C@H]1O (stereo not given in full) [ILOPROST] | – | – | – | – | – | – | – | – | – | – | – | – | – | – | 0.86 | – | – | – | Growth Rate (HEK-293T; replicate number 1): 0.66; Growth Rate (HEK-293T; replicate number 2): 0.38
11 | C[C@]12CC[C@H](O)CC1=CC[C@@H]1[C@@H]2CC[C@]2(C)C(n3cnc4ccccc43)=CC[C@@H]12 [GALETERONE] | – | – | 0.94 | -0.64 | – | 0.61 | – | 0.01 | – | -0.4 | – | – | – | – | – | – | – | -0.16 | Growth Rate (Fibroblast; 0 h, replicate number 2): 0.96
12 | Cc1cnc(Nc2ccc(C(=O)N3CCN(C)CC3)cc2)nc1N[C@@H]1CCC[C@@H]1C(N)=O | 0.38 | 0.45 | – | 0.31 | -0.08 | – | 0.56 | 0.96 | 0.61 | 0.86 | 0.41 | -0.77 | 0.4 | 0.31 | 0.34 | 0.52 | 0.22 | – | Growth Rate (Fibroblast; 12 h, replicate number 1): 0.62
